Test results taken from patent publication US9273067B2, “Pyrazolopyrimidine macrocycles as inhibitors of human immunodeficiency virus replication” (BRISTOL-MYERS SQUIBB COMPANY, priority 2014, dated 2016).

Tested on: NL-RLuc virus (recombinant HIV NL4-3 with Renilla Luciferase) in MT-2 cells
Test: Inhibition of HIV replication (NL-RLuc virus in MT-2 cells, luciferase readout)
Format: cell-based, human immunodeficiency virus (HIV)
Conditions: MT2, 120 h, NL-RLuc virus infecting MT-2 cells, 5 days of incubation, 10% FBS, luciferase quantitation; at least 2 experiments
Description: Inhibition of HIV Replication:
A recombinant NL-RLuc proviral clone was constructed in which a section of the nef gene from NL4-3 was replaced with the Renilla Luciferase gene. This virus is fully infectious and can undergo multiple cycles of replication in cell culture. In addition, the luciferous reporter provides a simple and easy method for quantitating the extent of virus growth and consequently, the antiviral activity of test compounds. The plasmid pNLRLuc contains the proviral NL-Rluc DNA cloned into pUC 18 at the PvuII site. The NL-RLuc virus was prepared by transfection of 293T cells with the plasmid pNLRLuc. Transfections were performed using the LipofectAMINE PLUS kit from Invitrogen (Carlsbad, Calif.) according to the manufacturer and the virus generated was titered in MT-2 cells. For susceptibility analyses, the titrated virus was used to infect MT-2 cells in the presence of compound, and after 5 days of incubation, cells were processed and quantitated for virus growth by the amount of expressed luciferase. Assay media was RPMI 1640 supplemented with 10% heat inactivated fetal bovine serum (FBS), 100 units/ml penicillin G/100 units/ml streptomycin, 10 mM HEPES buffer pH 7.55 and 2 mM L-glutamine. The results from at least 2 experiments were used to calculate the EC50 values. Luciferase was quantitated using the Dual Luciferase kit from Promega (Madison, Wis.). Susceptibility of viruses to compounds was determined by incubation in the presence of serial dilutions of the compound. The 50% effective concentration (EC50) was calculated by using the exponential form of the median effect equation where (Fa)=1/[1+(ED50/drug conc.)^m] (Johnson V A, Byington R T. Infectivity Assay. In Techniques in HIV Research. ed. Aldovini A, Walker B D. 71-76. New York: Stockton Press. 1990).

Question: Which EC50 does the source give for `Cc1nc2cc3nn2c(c1[C@H](OC(C)(C)C)C(=O)O)N1CCC(C)(CC1)OCCCC[C@H](C)Oc1cc(Cl)ccc1COC3` [Example 35, (2S)-2-(tert-Butoxy)-2-[(20S)-16-chloro-4,20,26-trimethyl-11,19,25-trioxa-1,5,7,8-tetraazapentacyclo[24.2.2.1^6,^9.0^2,^7.0^13,^18]hentriaconta-2,4,6(31),8,13,15,17-heptaen-3-yl]acetic acid] here?
Answer: Its EC50 is 2 nM.

Question: Which EC50 does the source give for `Cc1nc2cc3nn2c(c1[C@H](OC(C)(C)C)C(=O)O)N1CCC(C)(CC1)OCCCCc1cc(F)c(F)cc1COC3` [Example 68, (2S)-2-(tert-Butoxy)-2-{15,16-difluoro-4,24-dimethyl-11,23-dioxa-1,5,7,8-tetraazapentacyclo[22.2.2.1^6,^9.0^2,^7.0^13,^18]nonacosa-2,4,6(29),8,13(18),14,16-heptaen-3-yl}acetic acid] here?
Answer: Its EC50 is 1 nM.

Question: Which EC50 does the source give for `Cc1ccc2c(c1)O[C@@H](C)CCCCOC1(C)CCN(CC1)c1c([C@H](OC(C)(C)C)C(=O)O)c(C)nc3cc(nn13)COC2` [Example 38, (2S)-2-(tert-Butoxy)-2-[(20S)-4,16,20,26-tetramethyl-11,19,25-trioxa-1,5,7,8-tetraazapentacyclo[24.2.2.1^6,^9.0^2,^7.0^13,^18]hentriaconta-2,4,6(31),8,13(18),14,16-heptaen-3-yl]acetic acid] here?
Answer: Its EC50 is 2 nM.

Question: Which EC50 does the source give for `Cc1nc2cc3nn2c(c1[C@H](OC(C)(C)C)C(=O)O)N1CCC(C)(CC1)OCCCCOCc1cn(nn1)C3` [Example 2, (2S)-2-(tert-Butoxy)-2-{4,22-dimethyl-16,21-dioxa-1,5,7,8,11,12,13-heptaazapentacyclo[20.2.2.1^6,^9.1^11,^14.0^2,^7]octacosa-2,4,6(28),8,12,14(27)-hexaen-3-yl}acetic acid] here?
Answer: Its EC50 is 2690 nM.

Question: `Cc1nc2cc3nn2c(c1[C@H](OC(C)(C)C)C(=O)O)N1CCC(C)(CC1)OCCCCc1cccc(c1)COC3` [Example 63, (2S)-2-(tert-Butoxy)-2-{4,23-dimethyl-11,22-dioxa-1,5,7,8-tetraazapentacyclo[21.2.2.1^6,^9.1^13,^17.0^2,^7]nonacosa-2,4,6(29),8,13(28),14,16-heptaen-3-yl}acetic acid] was tested. Which EC50 did it give?
Answer: The EC50 was 16 nM.

Question: With `Cc1ccc2c(c1)O[C@@H](C)CCCCOC1(C)CCN(CC1)c1c([C@H](OC(C)(C)C)C(=O)O)c(C)nc3cc(nn13)CO[C@@H]2C` (single isomer, unassigned) [Example 56] as the compound, how does the EC50 read?
Answer: The EC50 was 8 nM.

Question: For `Cc1nc2cc3nn2c(c1[C@H](OC(C)(C)C)C(=O)O)N1CCC(C)(CC1)OCCCCC(C(F)(F)F)Oc1cc(F)ccc1COC3` (stereo partly drawn) [Example 54, (2S)-2-(tert-butoxy)-2-[16-fluoro-4,26-dimethyl-20-(trifluoromethyl)-11,19,25-trioxa-1,5,7,8-tetraazapentacyclo[24.2.2.1^6,^9.0^2,^7.0^13,^18]hentriaconta-2,4,6(31),8,13,15,17-heptaen-3-yl]acetic acid], which EC50 is on record?
Answer: The EC50 was 7 nM.

Question: `Cc1nc2cc3nn2c(c1[C@H](OC(C)(C)C)C(=O)O)N1CCC(C)(CC1)OCCCC[C@H](C)Oc1cc(F)c(F)cc1CCC3` [Example 43, (2S)-2-(tert-Butoxy)-2-[(20S)-15,16-difluoro-4,20,26-trimethyl-19,25-dioxa-1,5,7,8-tetraazapentacyclo[24.2.2.1^6,^9.0^2,^7.0^13,^18]hentriaconta-2,4,6(31),8,13(18),14,16-heptaen-3-yl]acetic acid] was tested. Which EC50 did it give?
Answer: The EC50 was 1 nM.

Question: How did the EC50 turn out when `Cc1nc2cc3nn2c(c1[C@H](OC(C)(C)C)C(=O)O)N1CCC(C)(CC1)OCC=CC[C@H](C)Oc1cc(F)c(F)cc1COC3` [Example 33, (2S)-2-(tert-Butoxy)-2-[(20S)-15,16-difluoro-4,20,26-trimethyl-11,19,25-trioxa-1,5,7,8-tetraazapentacyclo[24.2.2.1^6,^9.0^2,^7.0^13,^18]hentriaconta-2,4,6(31),8,13,15,17,22-octaen-3-yl]acetic acid] was run?
Answer: Its EC50 is 6 nM.

Question: How did the EC50 turn out when `Cc1nc2cc3nn2c(c1[C@H](OC(C)(C)C)C(=O)O)N1CCC(C)(CC1)OCC=Cc1cc(C(F)(F)F)ccc1COC3` [Example 26, (2S)-2-(tert-Butoxy)-2-[4,23-dimethyl-16-(trifluoromethyl)-11,22-dioxa-1,5,7,8-tetraazapentacyclo[21.2.2.1^6,^9.0^2,^7.0^13,^18]octacosa-2,4,6(28),8,13(18),14,16,19-octaen-3-yl]acetic acid] was run?
Answer: The EC50 was 32 nM.

Question: With `Cc1nc2cc3nn2c(c1[C@H](OC(C)(C)C)C(=O)O)N1CCC(C)(CC1)OCCCCCc1cc(F)ccc1COC3` [Example 60, (2S)-2-(tert-Butoxy)-2-{16-fluoro-4,25-dimethyl-1,24-dioxa-1,5,7,8-tetraazapentacyclo[23.2.2.1^6,^9.0^2,^7.0^13,^18]triaconta-2,4,6(30),8,13(18),14,16-heptaen-3-yl}acetic acid] as the compound, how does the EC50 read?
Answer: The EC50 was 13 nM.

Question: With `Cc1cc2c(cc1Cl)COCc1cc3nc(C)c([C@H](OC(C)(C)C)C(=O)O)c(n3n1)N1CCC(C)(CC1)OCCCC[C@H](C)O2` [Example 69, (2S)-2-(tert-Butoxy)-2-[(20S)-15-chloro-4,16,20,26-tetramethyl-11,19,25-trioxa-1,5,7,8-tetraazapentacyclo[24.2.2.1^6,^9.0^2,^7.0^13,^18]hentriaconta-2,4,6(31),8,13,15,17-heptaen-3-yl]acetic acid] as the compound, how does the EC50 read?
Answer: Its EC50 is 12 nM.

Question: With `Cc1nc2cc3nn2c(c1[C@H](OC(C)(C)C)C(=O)O)N1CCC(C)(CC1)OCCCC[C@H](C)Oc1cc(F)cc(F)c1COC3` [Example 32, (2S)-2-(tert-Butoxy)-2-[(20S)-14,16-difluoro-4,20,26-trimethyl-11,19,25-trioxa-1,5,7,8-tetraazapentacyclo[24.2.2.1^6,^9.0^2,^7.0^13,^18]hentriaconta-2,4,6(31),8,13,15,17-heptaen-3-yl]acetic acid] as the compound, how does the EC50 read?
Answer: Its EC50 is 3 nM.

Same assay, conditions: NL-RLuc virus infecting MT-2 cells, 5 days of incubation, 10% FBS, luciferase quantitation; at least 2 experiments; read-out: EC50

Question: Which EC50 does the source give for “(2S)-2-(tert-Butoxy)-2-[4,22-dimethyl-15-(propan-2-yl)-16,21-dioxa-1,5,7,8,11,12,13-heptaazapentacyclo[20.2.2.1^6,^9.1^11,^14.0^2,^7]octacosa-2,4,6(28),8,12,14(27),19-heptaen-3-yl]acetic acid [Example 9]” here?
Answer: Its EC50 is 93 nM.

Question: For `Cc1nc2cc3nn2c(c1[C@H](OC(C)(C)C)C(=O)O)N1CCC(C)(CC1)OCC/C=C\c1ccccc1OC3` [Example 20], which EC50 is on record?
Answer: Its EC50 is 105 nM.

Question: With `Cc1nc2cc3nn2c(c1[C@H](OC(C)(C)C)C(=O)O)N1CCC(C)(CC1)OC=CCCOC(C)(C)c1cn(nn1)C3` [Example 3, (2S)-2-(tert-Butoxy)-2-[4,15,15,22-tetramethyl-16,21-dioxa-1,5,7,8,11,12,13-heptaazapentacyclo[20.2.2.1^6,^9.1^11,^14.0^2,^7]octacosa-2,4,6(28),8,12,14(27),19-heptaen-3-yl]acetic acid] as the compound, how does the EC50 read?
Answer: Its EC50 is 253 nM.

Question: For `Cc1nc2cc3nn2c(c1[C@H](OC(C)(C)C)C(=O)O)N1CCC(C)(CC1)OCCCC[C@H](C)Oc1cc(F)ccc1CCC3` [Example 40, (2S)-2-(tert-Butoxy)-2-[(20S)-16-fluoro-4,20,26-trimethyl-19,25-dioxa-1,5,7,8-tetraazapentacyclo[24.2.2.1^6,^9.0^2,^7.0^13,^18]hentriaconta-2,4,6(31),8,13(18),14,16-heptaen-3-yl]acetic acid], which EC50 is on record?
Answer: Its EC50 is 31 nM.

Question: How did the EC50 turn out when `Cc1ccc2c(c1)O[C@@H](C)C/C=C\COC1(C)CCN(CC1)c1c([C@H](OC(C)(C)C)C(=O)O)c(C)nc3cc(nn13)COC2` [Example 36, (2S)-2-(tert-Butoxy)-2-[(20S,22Z)-4,16,20,26-tetramethyl-11,19,25-trioxa-1,5,7,8-tetraazapentacyclo[24.2.2.1^6,^9.0^2,^7.0^13,^18]hentriaconta-2,4,6(31),8,13(18),14,16,22-octaen-3-yl]acetic acid] was run?
Answer: The EC50 was 3690 nM.

Same assay, conditions: {}

Question: How did the EC50 turn out when `Cc1nc2cc3nn2c(c1[C@H](OC(C)(C)C)C(=O)O)N1CCC(C)(CC1)OCCCCC(c1ccccc1)Oc1ccc(F)cc1COC3` (stereo partly drawn) [Example 52, (2S)-2-(tert-butoxy)-2-{15-fluoro-4,26-dimethyl-20-phenyl-11,19,25-trioxa-1,5,7,8-tetraazapentacyclo[24.2.2.1^6,^9.0^2,^7.0^13,^18]hentriaconta-2,4,6(31),8,13(18),14,16-heptaen-3-yl}acetic acid] was run?
Answer: Its EC50 is 60 nM.

Question: How did the EC50 turn out when `Cc1nc2cc3nn2c(c1[C@H](OC(C)(C)C)C(=O)O)N1CCC(C)(CC1)OCCCCOC(CC(C)C)c1cn(nn1)C3` (stereo partly drawn) [Example 13, (2S)-2-(tert-Butoxy)-2-[4,22-dimethyl-15-(2-methylpropyl)-16,21-dioxa-1,5,7,8,11,12,13-heptaazapentacyclo[20.2.2.1^6,^9.1^11,^14.0^2,^7]octacosa-2,4,6(28),8,12,14(27)-hexaen-3-yl]acetic acid] was run?
Answer: Its EC50 is 124 nM.

Question: For `Cc1nc2cc3nn2c(c1[C@H](OC(C)(C)C)C(=O)O)N1CCC(C)(CC1)OCCCCOC(C(C)C)c1cn(nn1)C3` (stereo partly drawn) [Example 11, (2S)-2-(tert-Butoxy)-2-[4,22-dimethyl-15-(propan-2-yl)-16,21-dioxa-1,5,7,8,11,12,13-heptaazapentacyclo[20.2.2.1^6,^9.1^11,^14.0^2,^7]octacosa-2,4,6(28),8,12,14(27)-hexaen-3-yl]acetic acid], which EC50 is on record?
Answer: The EC50 was 204 nM.
